Laboratory results as given in patent publication US12673945B2, “3-((8-((1H-pyrazol-4-yl)amino)imidazo[1,2-a]pyridin-3-yl)ethinyl)-n-phenylbenzamide derivative, method for preparing same, and pharmaceutical composition containing same as active ingredient for prevention or treatment of cancer” (DAEGU-GYEONGBUK MEDICAL INNOVATION FOUNDATION, priority 2020, dated 2026).

Columns and labels:
Type in all cases: cell-based
Parental (Ba/F3) = test: Ba/F3 cell proliferation inhibition; conditions: BaF3; 72 hours, Cell Counting Kit-8
Procedure, shortened: (§1)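 Parental and T315I-Bcr-Abl Ba/F3 cells, 1×10^4 per well, exposed 72 h at 37 °C to nine 3-fold dilutions, final 0 to 10 μM. Viability by CCK-8 after 2 h, absorbance 450 nm; GI50 fitted from percent of vehicle-treated cells.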

T315I-Bcr-Abl (Ba/F3) = test: Ba/F3 cell proliferation inhibition; conditions: BaF3; 72 hours, Cell Counting Kit-8
Procedure, shortened: as §1

T315I-TCCS cells = test: human CML cell proliferation inhibition; conditions: 72 hours, Cell Counting Kit-8
Procedure, shortened: (§2)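 TCCS and KOPM28 (Bcr-Abl) and their T315I-mutant counterparts, 1×10^4 cells/well, exposed 72 h at 37 °C to 9 fivefold dilutions of compound, final up to 10 μM. Viability by CCK-8 absorbance at 450 nm after 2 h; GI50 from percentage of vehicle.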

TCCS cells = test: human CML cell proliferation inhibition; conditions: 72 hours, Cell Counting Kit-8
Procedure, shortened: as §2

T315I-KOPM28 cells = test: human CML cell proliferation inhibition; conditions: 72 hours, Cell Counting Kit-8
Procedure, shortened: as §2

KOPM28 cells = test: human CML cell proliferation inhibition; conditions: 72 hours, Cell Counting Kit-8
Procedure, shortened: as §2

Cc1cc(F)c(C(=O)Nc2cc(-c3cnn(C)c3)cc(C(F)(F)F)c2)cc1C#Cc1cnc2c(Nc3cn[nH]c3)cccn12 [Example 96, 5-((8-((1H-pyrazol-4-yl)amino)imidazo[1,2-a]pyridin-3-yl)ethynyl)-2-fluoro-4-methyl-N-(3-(1-methyl-1H-pyrazol-4-yl)-5-(trifluoromethyl)phenyl)benzamide]
GI50 (Parental (Ba/F3)): > 5000 nM
GI50 (T315I-Bcr-Abl (Ba/F3)): 50 to 500 nM
GI50 (T315I-TCCS cells): > 100 nM
GI50 (TCCS cells): 100 nM
GI50 (T315I-KOPM28 cells): > 100 nM
GI50 (KOPM28 cells): < 10 nM

Cc1cc(F)c(C(=O)Nc2cc(-c3ccncc3)cc(C(F)(F)F)c2)cc1C#Cc1cnc2c(Nc3cn[nH]c3)cccn12 [Example 97, 5-((8-((1H-pyrazol-4-yl)amino)imidazo[1,2-a]pyridin-3-yl)ethynyl)-2-fluoro-4-methyl-N-(3-(pyridin-4-yl)-5-(trifluoromethyl)phenyl)benzamide]
GI50 (Parental (Ba/F3)): > 5000 nM
GI50 (T315I-Bcr-Abl (Ba/F3)): 50 to 500 nM
GI50 (T315I-TCCS cells): 100 nM
GI50 (TCCS cells): < 10 nM
GI50 (T315I-KOPM28 cells): > 100 nM
GI50 (KOPM28 cells): < 10 nM

Cc1cc(F)c(C(=O)Nc2cc(-c3cccnc3)cc(C(F)(F)F)c2)cc1C#Cc1cnc2c(Nc3cn[nH]c3)cccn12 [Example 98, 5-((8-((1H-pyrazol-4-yl)amino)imidazo[1,2-a]pyridin-3-yl)ethynyl)-2-fluoro-4-methyl-N-(3-(pyridin-3-yl)-5-(trifluoromethyl)phenyl)benzamide]
GI50 (Parental (Ba/F3)): > 5000 nM
GI50 (T315I-Bcr-Abl (Ba/F3)): 50 to 500 nM
GI50 (T315I-TCCS cells): 100 nM
GI50 (TCCS cells): < 10 nM
GI50 (T315I-KOPM28 cells): > 100 nM
GI50 (KOPM28 cells): < 10 nM

Cc1cc(F)c(C(=O)Nc2cc(N3CCN(C)CC3)cc(C(F)(F)F)c2)cc1C#Cc1cnc2c(Nc3cn[nH]c3)cccn12 [Example 99, 5-((8-((1H-pyrazol-4-yl)amino)imidazo[1,2-a]pyridin-3-yl)ethynyl)-2-fluoro-4-methyl-N-(3-(4-methylpiperazin-1-yl)-5-(trifluoromethyl)phenyl)benzamide]
GI50 (Parental (Ba/F3)): 500 to 5000 nM
GI50 (T315I-Bcr-Abl (Ba/F3)): 50 to 500 nM
GI50 (T315I-TCCS cells): 100 nM
GI50 (TCCS cells): < 10 nM
GI50 (T315I-KOPM28 cells): > 100 nM
GI50 (KOPM28 cells): < 10 nM

Cc1cc(F)c(C(=O)Nc2cc(N3CCN(C)C(=O)C3)cc(C(F)(F)F)c2)cc1C#Cc1cnc2c(Nc3cn[nH]c3)cccn12 [Example 100, 5-((8-((1H-pyrazol-4-yl)amino)imidazo[1,2-a]pyridin-3-yl)ethynyl)-2-fluoro-4-methyl-N-(3-(4-methyl-3-oxopiperazin-1-yl)-5-(trifluoromethyl)phenyl)benzamide]
GI50 (Parental (Ba/F3)): > 5000 nM
GI50 (T315I-Bcr-Abl (Ba/F3)): 50 to 500 nM
GI50 (T315I-TCCS cells): 100 nM
GI50 (TCCS cells): < 10 nM
GI50 (T315I-KOPM28 cells): > 100 nM
GI50 (KOPM28 cells): < 10 nM

Cc1cc(F)c(C(=O)Nc2cc(Oc3ccncc3)cc(C(F)(F)F)c2)cc1C#Cc1cnc2c(Nc3cn[nH]c3)cccn12 [Example 101, 5-((8-((1H-pyrazol-4-yl)amino)imidazo[1,2-a]pyridin-3-yl)ethynyl)-2-fluoro-4-methyl-N-(3-(pyridin-4-yloxy)-5-(trifluoromethyl)phenyl)benzamide]
GI50 (Parental (Ba/F3)): > 5000 nM
GI50 (T315I-Bcr-Abl (Ba/F3)): < 50 nM
GI50 (T315I-TCCS cells): < 10 nM
GI50 (TCCS cells): < 10 nM
GI50 (T315I-KOPM28 cells): 100 nM
GI50 (KOPM28 cells): < 10 nM

Cc1cc(F)c(C(=O)Nc2cc(OCCN(C)C)cc(C(F)(F)F)c2)cc1C#Cc1cnc2c(Nc3cn[nH]c3)cccn12 [Example 102, 5-((8-((1H-pyrazol-4-yl)amino)imidazo[1,2-a]pyridin-3-yl)ethynyl)-N-(3-(2-(dimethylamino)ethoxy)-5-(trifluoromethyl)phenyl)-2-fluoro-4-methylbenzamide]
GI50 (Parental (Ba/F3)): 500 to 5000 nM
GI50 (T315I-Bcr-Abl (Ba/F3)): 50 to 500 nM
GI50 (T315I-TCCS cells): 100 nM
GI50 (TCCS cells): < 10 nM
GI50 (T315I-KOPM28 cells): > 100 nM
GI50 (KOPM28 cells): < 10 nM

Cc1cc(F)c(C(=O)Nc2cc(OCCCN(C)C)cc(C(F)(F)F)c2)cc1C#Cc1cnc2c(Nc3cn[nH]c3)cccn12 [Example 103, 5-((8-((1H-pyrazol-4-yl)amino)imidazo[1,2-a]pyridin-3-yl)ethynyl)-N-(3-(3-(dimethylamino)propoxy)-5-(trifluoromethyl)phenyl)-2-fluoro-4-methylbenzamide]
GI50 (Parental (Ba/F3)): > 5000 nM
GI50 (T315I-Bcr-Abl (Ba/F3)): 50 to 500 nM
GI50 (T315I-TCCS cells): 100 nM
GI50 (TCCS cells): < 10 nM
GI50 (T315I-KOPM28 cells): > 100 nM
GI50 (KOPM28 cells): < 10 nM

Cc1cc(F)c(C(=O)Nc2cc(CN3CCN(C)CC3)cc(C(F)(F)F)c2)cc1C#Cc1cnc2c(Nc3cn[nH]c3)cccn12 [Example 104, 5-((8-((1H-pyrazol-4-yl)amino)imidazo[1,2-a]pyridin-3-yl)ethynyl)-2-fluoro-4-methyl-N-(3-((4-methylpiperazin-1-yl)methyl)-5-(trifluoromethyl)phenyl)benzamide]
GI50 (Parental (Ba/F3)): 500 to 5000 nM
GI50 (T315I-Bcr-Abl (Ba/F3)): 50 to 500 nM
GI50 (T315I-TCCS cells): 100 nM
GI50 (TCCS cells): < 10 nM
GI50 (T315I-KOPM28 cells): > 100 nM
GI50 (KOPM28 cells): < 10 nM

Cc1cc(F)c(C(=O)Nc2cc(CN3CCC(N(C)C)C3)cc(C(F)(F)F)c2)cc1C#Cc1cnc2c(Nc3cn[nH]c3)cccn12 (stereo not drawn) [Example 105, 5-((8-((1H-pyrazol-4-yl)amino)imidazo[1,2-a]pyridin-3-yl)ethynyl)-N-(3-((3-(dimethylamino)pyrrolidin-1-yl)methyl)-5-(trifluoromethyl)phenyl)-2-fluoro-4-methylbenzamide]
GI50 (Parental (Ba/F3)): 500 to 5000 nM
GI50 (T315I-Bcr-Abl (Ba/F3)): < 50 nM
GI50 (T315I-TCCS cells): < 10 nM
GI50 (TCCS cells): < 10 nM
GI50 (T315I-KOPM28 cells): 100 nM
GI50 (KOPM28 cells): < 10 nM

Cc1cc(F)c(C(=O)Nc2cc(CN3CCN(CCO)CC3)cc(C(F)(F)F)c2)cc1C#Cc1cnc2c(Nc3cn[nH]c3)cccn12 [Example 106, 5-((8-((1H-pyrazol-4-yl)amino)imidazo[1,2-a]pyridin-3-yl)ethynyl)-2-fluoro-N-(3-((4-(2-hydroxyethyl)piperazin-1-yl)methyl)-5-(trifluoromethyl)phenyl)-4-methylbenzamide]
GI50 (Parental (Ba/F3)): > 5000 nM
GI50 (T315I-Bcr-Abl (Ba/F3)): 50 to 500 nM
GI50 (T315I-TCCS cells): 100 nM
GI50 (TCCS cells): < 10 nM
GI50 (T315I-KOPM28 cells): > 100 nM
GI50 (KOPM28 cells): < 10 nM

Cc1cc(F)c(C(=O)Nc2cc(CN3CCN(C)C(=O)C3)cc(C(F)(F)F)c2)cc1C#Cc1cnc2c(Nc3cn[nH]c3)cccn12 [Example 107, 5-((8-((1H-pyrazol-4-yl)amino)imidazo[1,2-a]pyridin-3-yl)ethynyl)-2-fluoro-4-methyl-N-(3-((4-methyl-3-oxopiperazin-1-yl)methyl)-5-(trifluoromethyl)phenyl)benzamide]
GI50 (Parental (Ba/F3)): 500 to 5000 nM
GI50 (T315I-Bcr-Abl (Ba/F3)): 50 to 500 nM
GI50 (T315I-TCCS cells): 100 nM
GI50 (TCCS cells): < 10 nM
GI50 (T315I-KOPM28 cells): > 100 nM
GI50 (KOPM28 cells): < 10 nM

Cc1cc(F)c(C(=O)Nc2cc(Cn3cncn3)cc(C(F)(F)F)c2)cc1C#Cc1cnc2c(Nc3cn[nH]c3)cccn12 [Example 108, N-(3-((1H-1,2,4-triazol-1-yl)methyl)-5-(trifluoromethyl)phenyl)-5-((8-((1H-pyrazol-4-yl)amino)imidazo[1,2-a]pyridin-3-yl)ethynyl)-2-fluoro-4-methylbenzamide]
GI50 (Parental (Ba/F3)): > 5000 nM
GI50 (T315I-Bcr-Abl (Ba/F3)): 50 to 500 nM
GI50 (T315I-TCCS cells): 100 nM
GI50 (TCCS cells): < 10 nM
GI50 (T315I-KOPM28 cells): > 100 nM
GI50 (KOPM28 cells): < 10 nM

Cc1cc(F)c(C(=O)Nc2ccc(CN3CCN(C)CC3)c(C(F)(F)F)c2)cc1C#Cc1cnc2c(Nc3cn[nH]c3)cccn12 [Example 109, 5-((8-((1H-pyrazol-4-yl)amino)imidazo[1,2-a]pyridin-3-yl)ethynyl)-2-fluoro-4-methyl-N-(4-((4-methylpiperazin-1-yl)methyl)-3-(trifluoromethyl)phenyl)benzamide]
GI50 (Parental (Ba/F3)): 500 to 5000 nM
GI50 (T315I-Bcr-Abl (Ba/F3)): < 50 nM
GI50 (T315I-TCCS cells): < 10 nM
GI50 (TCCS cells): < 10 nM
GI50 (T315I-KOPM28 cells): < 10 nM
GI50 (KOPM28 cells): < 10 nM

Cc1cc(F)c(C(=O)Nc2ccc(CN3CCC(N(C)C)C3)c(C(F)(F)F)c2)cc1C#Cc1cnc2c(Nc3cn[nH]c3)cccn12 (stereo not drawn) [Example 110, 5-((8-((1H-pyrazol-4-yl)amino)imidazo[1,2-a]pyridin-3-yl)ethynyl)-N-(4-((3-(dimethylamino)pyrrolidin-1-yl)methyl)-3-(trifluoromethyl)phenyl)-2-fluoro-4-methylbenzamide]
GI50 (Parental (Ba/F3)): 500 to 5000 nM
GI50 (T315I-Bcr-Abl (Ba/F3)): < 50 nM
GI50 (T315I-TCCS cells): 100 nM
GI50 (TCCS cells): < 10 nM
GI50 (T315I-KOPM28 cells): 100 nM
GI50 (KOPM28 cells): < 10 nM

Cc1cc(F)c(C(=O)Nc2ccc(CN3CCN(CCO)CC3)c(C(F)(F)F)c2)cc1C#Cc1cnc2c(Nc3cn[nH]c3)cccn12 [Example 111, 5-((8-((1H-pyrazol-4-yl)amino)imidazo[1,2-a]pyridin-3-yl)ethynyl)-2-fluoro-N-(4-((4-(2-hydroxyethyl)piperazin-1-yl)methyl)-3-(trifluoromethyl)phenyl)-4-methylbenzamide]
GI50 (Parental (Ba/F3)): 500 to 5000 nM
GI50 (T315I-Bcr-Abl (Ba/F3)): 50 to 500 nM
GI50 (T315I-TCCS cells): < 10 nM
GI50 (TCCS cells): < 10 nM
GI50 (T315I-KOPM28 cells): < 10 nM
GI50 (KOPM28 cells): < 10 nM

Cc1cc(F)c(C(=O)Nc2ccc(CN3CCN(C)C(=O)C3)c(C(F)(F)F)c2)cc1C#Cc1cnc2c(Nc3cn[nH]c3)cccn12 [Example 112, 5-((8-((1H-pyrazol-4-yl)amino)imidazo[1,2-a]pyridin-3-yl)ethynyl)-2-fluoro-4-methyl-N-(4-((4-methyl-3-oxopiperazin-1-yl)methyl)-3-(trifluoromethyl)phenyl)benzamide]
GI50 (Parental (Ba/F3)): 500 to 5000 nM
GI50 (T315I-Bcr-Abl (Ba/F3)): 50 to 500 nM
GI50 (T315I-TCCS cells): 100 nM
GI50 (TCCS cells): < 10 nM
GI50 (T315I-KOPM28 cells): 100 nM
GI50 (KOPM28 cells): < 10 nM
